According to PMC9032695, “Self-Assembled Alkylated Polyamine Analogs as Supramolecular Anticancer Agents” (Molecules, 2022):
pIC50: −log10 of the molar value. Values joined by “and” are separate entries in the source; they are usually repeats but may differ in a detail not shown here. Equal entries are not always repeated. Where two headings read alike, the source gives them in different places.

Key:
A549 cells = assay: CellTiter-Blue cell viability assay, A549; assay type: cell-based; details: Homo sapiens, 24 h incubation
Description: (§1) The human non-small cell lung carcinoma cell lines A549 (ATCC CCL-185) were maintained in RPMI 1640 medium containing 9% bovine calf serum, penicillin, and streptomycin at 37 °C, 5% CO2. For all experiments, cells were seeded and allowed to attach overnight. The medium was then aspirated and replaced with that containing polyamine PG analogs at the indicated concentrations. Cells were incubated for the times indicated at 37 °C, 5% CO2. The HCT 116 (ATCC CCL-247) human colorectal carcinoma cell lines were grown in McCoy’s 5 A medium (Thermo Fischer Scientific, Waltham, MA, USA), supplemented with 10% FBS at 37 °C with 5% CO2 in a humidified chamber.
(§2) The cytotoxicity of the HPG analogs was evaluated in HCT116 and A549 cells by the Promega CellTiter Blue Cell viability assay. The cells were seeded in 96-well plates at a density of four thousand cells/well 24 h before the polyamine treatment. The original medium was replaced with serial dilutions of the PG analogs in a cell culture medium and incubated for another 24 h. The mixture of 100 μL cell culture medium and 20 μL CellTiter Blue reagent was added into each well after the removal of the media with polyamines. After 2 h of incubation, the fluorescence intensity [FI] was measured at λex/λem = 560/590 nm by a microplate reader (Molecular Devices, San Jose, CA, USA). The relative cell viability (%) was calculated as [FI]treated/[FI]untreated × 100. Polyamine concentration, causing a 50% decrease in the cell viability, was defined as IC50 and auto-calculated in GraphPad Prism 9.0.0 (Prism 9, San Diego, CA, USA) with the dose–response analysis.

[1] = target: T1, purified recombinant human SMOX protein (Homo sapiens, UniProt Q9NWM0); assay: SMOX activity assay (luminol-based chemiluminescence); assay type: biochemical; details: for pIC50: purified recombinant human SMOX, pH 8.0, 37 °C; for fold activity compared to MDL72527, SMOX: ratio of IC50 values
Description: SMOX activity was measured using a chemiluminescent enzyme-based assay, detecting the formation of H2O2 in the presence of HPG analogs as the substrate, as described. To measure the activity of these polyamines against SMOX, the enzyme (300 ng) in 0.083 M glycine buffer (pH 8.0) and the inhibitor (0–250 µM) were added to the luminol-HRP master mix and incubated at 37 °C for 2 min. PG was then added to the reaction mixture at a final concentration of 250 µM, vortexed for 3 s, and chemiluminescence was integrated over 40 s. Data were averaged and normalized to the blank reaction (no inhibitor) as % SMOX activity. Inactivated SMOX served as a negative control and was accounted for in the calculations.

[2] = TEM imaging of self-assembled nanoparticles; assay type: physicochemical
Description: A 10 µL volume of nanoparticle dispersion was meticulously placed on a plasma-treated copper grid (carbon-coated). After 5 min, the excess volume of nanoparticles was absorbed by a regular filter paper. The grid was then stained with 2% phosphotungstic acid (6 µL) for 1 min, and, similarly, the excess staining solution was absorbed by a regular filter paper. The grid was then allowed to dry in air for another 5 min. The image was captured under an FEI-Tecnai G2 transmission electron microscope (Hillsboro, OR, USA) at 80 kV, equipped with an AMT digital imaging system (Woburn, MA, USA).

HCT116 cells = assay: CellTiter-Blue cell viability assay, HCT116; assay type: cell-based; details: Homo sapiens, HCT-116, 24 h incubation
Description: as §1, §2

[3] = Hydrodynamic size and zeta potential of self-assembled nanoparticles (DLS); assay type: physicochemical; details: self-assembled in aqueous solution; for PDI: DLS; for Particle Size: hydrodynamic size by DLS
Description: To achieve self-assembly, each sample was dispersed in aqueous solution under sonication (Branson Ultrasonic, working frequency […] at room temperature) for 30 min. Thereafter, the sample was allowed to undergo self-assembly by keeping it undisturbed for another 30 min. The size and surface zeta potential of the self-assembled nanoparticles were analyzed using a Brookhaven NanoBrook (Holtsville, NY, USA) Omni particle size and zeta potential analyzer, respectively.

A549 xenograft = tested on: A549 xenograft; parameters: method as in PMID 17464296, PMID 18301893, PMID 19487545; details: in vivo A549 xenograft model; ref [1],[9],[10]; cited from earlier work
colon cancer cells = tested on: colon cancer cells; parameters: method as in PMID 19487545; details: ref [10]; cited from earlier work
[4] = tested on: small (NCI H82 and H69) and non-small (NCI A549 and H157) lung cancer cells; parameters: method as in PMID 18301893; details: ref [9]; cited from earlier work
[5] = target: T1, purified recombinant human SMOX protein; parameters: method as in PMID 33173604; details: purified enzyme, reference inhibitor, ref [21], cited from earlier work

T1 sequence (Q9NWM0 whole entry): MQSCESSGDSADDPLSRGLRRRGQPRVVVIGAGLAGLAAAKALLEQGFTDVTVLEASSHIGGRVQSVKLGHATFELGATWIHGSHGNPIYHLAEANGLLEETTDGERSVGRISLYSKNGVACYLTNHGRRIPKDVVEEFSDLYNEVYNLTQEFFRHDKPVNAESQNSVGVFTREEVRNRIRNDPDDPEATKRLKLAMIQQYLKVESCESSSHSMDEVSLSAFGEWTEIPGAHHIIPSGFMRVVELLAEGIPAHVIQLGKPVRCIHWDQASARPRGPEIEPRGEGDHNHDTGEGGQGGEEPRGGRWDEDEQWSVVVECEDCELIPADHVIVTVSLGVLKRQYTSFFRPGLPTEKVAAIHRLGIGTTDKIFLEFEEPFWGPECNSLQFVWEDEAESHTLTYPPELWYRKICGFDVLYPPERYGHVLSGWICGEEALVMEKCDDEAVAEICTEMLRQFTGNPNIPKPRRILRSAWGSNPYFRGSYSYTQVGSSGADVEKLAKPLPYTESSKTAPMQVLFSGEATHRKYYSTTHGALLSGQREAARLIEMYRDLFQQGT

Structure (SMILES): CCCCCCCCNCCCNC/C=C\CNCCCNCCCCCCCC [HPG-7, (Z)-N^1,N^1′-(but-2-ene-1,4-diyl)bis(N^3-octylpropane-1,3-diamine)]
- pIC50 (A549 cells): > 6.00
- pIC50 [1]: > 5.00
- fold activity compared to MDL72527, SMOX [1]: around nine-fold more active than MDL 72,527
- average size obtained from TEM [2]: 30 nm
- pIC50 (HCT116 cells): 6.00
- PDI [3]: 0.13
- Particle Size [3]: 318 ± 8 nm
- Zeta Potential [3]: 11 mV

Structure (SMILES): CCCCCCCNCCCNC/C=C\CNCCCNCCCCCCC [HPG-6, (Z)-N^1,N^1′-(but-2-ene-1,4-diyl)bis(N^3-heptylpropane-1,3-diamine)]
- pIC50 (A549 cells): 5.52
- pIC50 [1]: 4.52
- average size obtained from TEM [2]: 8 nm
- pIC50 (HCT116 cells): 5.52
- PDI [3]: 0.17
- Particle Size [3]: 225 nm and 225 ± 6 nm
- Zeta Potential [3]: 22 mV

Structure (SMILES): CCCCCNCCCNC/C=C\CNCCCNCCCCC [HPG-4, (Z)-N^1,N^1′-(but-2-ene-1,4-diyl)bis(N^3-pentylpropane-1,3-diamine)]
- pIC50 (A549 cells): 5.00
- average size obtained from TEM [2]: 6 nm
- pIC50 (HCT116 cells): < 5.00
- PDI [3]: 0.15
- Particle Size [3]: 174 nm and 174 ± 3 nm
- Zeta Potential [3]: 15 mV

Structure (SMILES): CCCCCCCCCNCCCNC/C=C\CNCCCNCCCCCCCCC [HPG-8, (Z)-N^1,N^1′-(but-2-ene-1,4-diyl)bis(N^3-nonylpropane-1,3-diamine)]
- pIC50 (A549 cells): 5.15
- pIC50 [1]: > 5.00
- fold activity compared to MDL72527, SMOX [1]: around nine-fold more active than MDL 72,527
- pIC50 (HCT116 cells): > 6.00
- PDI [3]: 0.17
- Zeta Potential [3]: 17 mV

Structure (SMILES): CCCCCCNCCCNC/C=C\CNCCCNCCCCCC [HPG-5, (Z)-N^1,N^1′-(but-2-ene-1,4-diyl)bis(N^3-hexylpropane-1,3-diamine)]
- pIC50 (A549 cells): 5.15
- pIC50 [1]: 4.05
- pIC50 (HCT116 cells): 5.10
- PDI [3]: 0.23
- Particle Size [3]: 158 ± 4 nm
- Zeta Potential [3]: 16 mV

Structure (SMILES): CCCCNCCCNC/C=C\CNCCCNCCCC [HPG-3, (Z)-N^1,N^1′-(but-2-ene-1,4-diyl)bis(N^3-butylpropane-1,3-diamine)]
- pIC50 (A549 cells): < 5.00
- pIC50 (HCT116 cells): 5.10
- PDI [3]: 0.064
- Particle Size [3]: 186 ± 3 nm
- Zeta Potential [3]: 24 mV

Structure (SMILES): CCNCCCNC/C=C\CNCCCNCC [PG11047, (Z)-N^1,N^1′-(but-2-ene-1,4-diyl)bis(N^3-ethylpropane-1,3-diamine)]
- pIC50 (A549 cells): < 5.00
- progression of established tumors (A549 xenograft): significantly delay the progression of established tumors
- anticancer activity in colon cancer cells (colon cancer cells): broad spectrum of anticancer activity
- pIC50 (HCT116 cells): 5.10
- growth inhibition of lung cancer cells in vitro [4]: inhibits the growth

Structure (SMILES): C=C=CCNCCCCNCC=C=C [MDL72527]
- pIC50 [5]: 4.05
- pIC50 ([5]; listed as MDL 72,527): ~4.05

Structure (SMILES): CCCNCCCNC/C=C\CNCCCNCCC [HPG-2, (Z)-N^1,N^1′-(but-2-ene-1,4-diyl)bis(N^3-propylpropane-1,3-diamine)]
- pIC50 (A549 cells): > 6.00
- pIC50 (HCT116 cells): > 6.00
- PDI [3]: 0.21
- Particle Size [3]: 173 ± 7 nm
- Particle Size ([3]; listed as HPG2): around 173 nm
- Zeta Potential [3]: 27 mV
